The values below are quoted from earlier work in US12637513B2, “Method of treating cancer by administering an inhibitor of erythropoietin receptor activity comprising either erythropoietin receptor or erythropoietin protein” (ImmunEdge, Inc., priority 2022, dated 2026).

One may read the IC50 as the concentration at which inhibition is half-maximal.

In series [1] the target is T1, hetero-EPOR (Homo sapiens, UniProt P19235+P32927).
T1 sequence (P19235 25-508): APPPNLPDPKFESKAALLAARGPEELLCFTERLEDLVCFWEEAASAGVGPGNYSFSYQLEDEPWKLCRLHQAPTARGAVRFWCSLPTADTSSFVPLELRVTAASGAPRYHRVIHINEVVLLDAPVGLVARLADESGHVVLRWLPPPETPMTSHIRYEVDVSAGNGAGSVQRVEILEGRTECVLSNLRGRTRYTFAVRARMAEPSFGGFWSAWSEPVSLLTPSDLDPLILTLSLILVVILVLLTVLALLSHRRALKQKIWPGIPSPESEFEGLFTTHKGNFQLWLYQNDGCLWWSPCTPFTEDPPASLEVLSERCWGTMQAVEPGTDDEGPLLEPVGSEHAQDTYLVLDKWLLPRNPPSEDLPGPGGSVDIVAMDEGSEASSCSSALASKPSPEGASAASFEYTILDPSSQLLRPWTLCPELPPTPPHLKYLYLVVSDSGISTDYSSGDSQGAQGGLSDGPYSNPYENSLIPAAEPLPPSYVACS
T1 sequence (P32927 17-897): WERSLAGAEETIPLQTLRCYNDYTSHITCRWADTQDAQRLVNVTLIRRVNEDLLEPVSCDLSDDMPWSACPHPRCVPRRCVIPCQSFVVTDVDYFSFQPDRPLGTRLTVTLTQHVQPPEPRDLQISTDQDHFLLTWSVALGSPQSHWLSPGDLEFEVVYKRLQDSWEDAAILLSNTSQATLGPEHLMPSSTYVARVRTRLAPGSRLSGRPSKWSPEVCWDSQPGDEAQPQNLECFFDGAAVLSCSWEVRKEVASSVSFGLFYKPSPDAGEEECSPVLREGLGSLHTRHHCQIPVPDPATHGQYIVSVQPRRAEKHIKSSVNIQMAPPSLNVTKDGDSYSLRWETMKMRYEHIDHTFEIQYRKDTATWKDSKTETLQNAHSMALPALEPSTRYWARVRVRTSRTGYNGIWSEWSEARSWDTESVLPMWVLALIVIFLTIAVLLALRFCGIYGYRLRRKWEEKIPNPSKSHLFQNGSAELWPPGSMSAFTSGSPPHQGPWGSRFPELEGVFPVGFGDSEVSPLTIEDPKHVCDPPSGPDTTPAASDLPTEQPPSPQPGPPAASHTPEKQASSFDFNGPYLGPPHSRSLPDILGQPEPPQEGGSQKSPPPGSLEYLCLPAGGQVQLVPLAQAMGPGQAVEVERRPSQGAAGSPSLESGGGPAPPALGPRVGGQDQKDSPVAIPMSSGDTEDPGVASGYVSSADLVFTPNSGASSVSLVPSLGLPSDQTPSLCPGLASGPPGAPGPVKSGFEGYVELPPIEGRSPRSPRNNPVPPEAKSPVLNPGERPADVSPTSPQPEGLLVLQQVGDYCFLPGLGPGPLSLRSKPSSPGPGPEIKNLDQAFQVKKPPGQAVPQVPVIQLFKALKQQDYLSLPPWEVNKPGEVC
The following applies: cited from earlier work.

The test system of series [2] is PHD1-3. Particulars: target PHD1-3; cited from earlier work.
Series [3] has as its target PHD2 (Homo sapiens, UniProt Q9GZT9). Particulars: target PHD2; cited from earlier work.
Series [4] deals with Glucosidase. The following applies: target Glucosidase; cited from earlier work.

Sequence of PHD2 (Q9GZT9 whole entry): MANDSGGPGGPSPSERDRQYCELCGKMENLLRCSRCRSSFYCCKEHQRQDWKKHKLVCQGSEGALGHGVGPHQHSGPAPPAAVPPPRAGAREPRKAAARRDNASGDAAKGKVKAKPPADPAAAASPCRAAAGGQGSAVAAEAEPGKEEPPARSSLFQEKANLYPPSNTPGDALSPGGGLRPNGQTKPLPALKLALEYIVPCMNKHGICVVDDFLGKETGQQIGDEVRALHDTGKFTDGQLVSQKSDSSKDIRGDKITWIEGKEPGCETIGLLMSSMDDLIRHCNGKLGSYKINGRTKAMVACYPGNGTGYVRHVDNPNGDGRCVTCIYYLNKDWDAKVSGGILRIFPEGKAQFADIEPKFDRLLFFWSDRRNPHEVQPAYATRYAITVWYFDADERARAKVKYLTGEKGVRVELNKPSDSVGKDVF

With QEQLERALNSS, in series [1], the “activity for the hetero-EPOR” value is on record as “activates the hetero-EPOR”. For `O=C(O)CNC(=O)C1=C(O)CCN(Cc2ccc(Oc3ccc(Cl)cc3)nc2)C1=O` [TP0463518], the IC50 in series [2] was 5.3 to 63 nM. On to `O=C(O)CNC(=O)c1c(O)c2ccccc2n(Cc2ccccc2)c1=O` [IOX2], for which, in series [3], the IC50 was 21 nM. With `O=c1cc(-c2ccc(O)cc2)oc2c([C@@H]3O[C@H](CO)[C@@H](O)[C@H](O)[C@H]3O)c(O)cc(O)c12` [Vitexin], the IC50 in series [4] was 48 nM.
